Assay results as given in patent US20200306295A1, “METHOD AND DEVICE FOR ANNIHILATION OF Staphylococcus aureus” (priority 2017, published 2020).

How the values were obtained:
[1] = tested on: MRSA USA300
Protocol: Thereafter, an aliquot (20 μL) of the bacterial suspension was transferred onto a glass slide. Samples were exposed to blue light at different time-lengths and variable light intensities. […] The solutions were cultured for 20 min. The solution was serially diluted in sterile PBS and transferred to LB plates in order to enumerate the viable number of MRSA colony-forming units (CFUs). […] Data are presented as viable MRSA CFU/mL and percent survival of MRSA CFU/mL in the treated groups.
Additive was defined as an FIC index of 1. Antagonism was defined as an FIC index of >4.

[2] = tested on: stationary-phase MRSA; experiment: Time-killing assay in PBS with or without pulsed laser (CFU enumeration); assay type: cell-based, S. aureus
Protocol: To quantify viable bacterial cells, CFU experiments were performed. 100 μl of sample analyte was transferred into a 96-well plate and then three or four ten-fold serial dilution achieved by transferring 20 μl bacterial culture into 180 μl 1×PBS in the next dilution row. After serial dilution, an aliquot (4 μl) from each well was spotted onto sterile TSA plates. After incubating the plates overnight (˜18 hours) at 37° C., the colonies were enumerated, and cell number was calculated in CFU/ml. For each CFU enumeration experiment, three independent replicates were applied.
Stationary-phase MRSA was prepared, washed and resuspended in 1×PBS at two-times of its original concentration. […] After laser treatment, the droplets were resuspended into 200 μl of 1×PBS (1:40 dilution) supplemented with antibiotics at different concentrations in a mini centrifuge tube (89166-278, VWR international). For example, daptomycin was added into MRSA solution after laser treatment at desired concentration of 0×MIC, 5×MIC, 10×MIC, 30×MIC, or 100×MIC supplemented with 50 μg/ml CaCl2). Corresponding groups without laser treatment were also conducted for comparison. These tubes were incubated within an orbital incubator (37° C., 200 rpm) for different incubation time. At each specific time point, 40 μl of aliquot from each group was transferred to a 96-well plate for follow-up CFU enumerating assay. In the case of tobramycin, additional antibiotic washing by 1×PBS was performed before the CFU experiment to avoid antibiotic interference. For time-killing assay in fresh human whole blood, similar protocol was followed as above, except that 1×PBS was replaced by fresh human whole blood and the initial stationary-phase MRSA solution was diluted by ten times with a concentration of ˜10^7 CFU/ml.

[3] = tested on: S. aureus (ATCC 6538) biofilm; settings: blue light plus low-concentration H2O2

OO [H2O2, hydrogen peroxide]
MRSA killing (CFUs) ([1]; 13.2 mM H2O2 combined with blue light 108 J/cm^2, ~10^7 MRSA): eradicated all MRSA
MRSA scavenged ([1]; 5-min culture with H2O2 after 2-min blue light exposure (24 J/cm^2)): 60%
antimicrobial efficiency relative to 2-min blue light alone ([1]; H2O2 20 min, 13.2 mM after 2-min blue light (24 J/cm^2)): Two times antimicrobial efficiency
FIC index ([1]; blue light and H2O2 against MRSA, ≤0.5 is synergy, according to estimation): ≤ 0.38
killing of stationary-phase MRSA ([2]; 220 μM with laser treatment, within 2 hours): 4 log
killing of stationary-phase MRSA ([2]; alone, at 22 mM high concentration): minor killing
MRSA killed inside biofilm [3]: 92%
